According to US20090325920A1, “METHODS FOR THE TREATMENT OF A TRAUMATIC CENTRAL NERVOUS SYSTEM INJURY” (priority 2005, published 2009):

Legend:
[1] = Solubility of progesterone in carriers; assay type: physicochemical
[2] = test system: adults with blunt TBI, Glasgow Coma Scale score 4-12
Text: We also hoped to detect signals of activity.
According to the U.S. Food and Drug Administration, an “adverse event” is any undesirable medical event occurring to a subject in a clinical trial, whether or not related to the study drug. This includes events not seen at baseline, or worsened if present at baseline. “Serious adverse events” are defined as death, immediate risk of death, or suspicion that use or continued use would result in the patient's death, prolongation of existing hospitalization, persistent or significant disability/incapacity, or a congenital anomaly/birth defect.
These included any thromboembolic event (deep vein thrombosis, thrombophlebitis, ischemic myocardial infarction, pulmonary embolism, stroke or transient ischemic attack), elevated liver enzymes, temperature elevation, allergic reactions, and hyperglycemia. […] An independent internal safety monitor made the determination if an adverse event was associated with study treatment. Both the FDA and an independent NIH-appointed data safety monitoring board independently reviewed these determinations.
Selection of participants: Consecutive adult victims of blunt TBI who reached Grady within 11 hours of injury with a post-stabilization or “index” Glasgow Coma Scale score (iGCS) of 4-12 were eligible for enrollment (FIG. 5).
Interventions: Following proxy consent, patients were placed in one of 8 clinical subgroups defined by gender (male versus female), race (black versus all others) and TBI severity (moderate versus severe). […] This asymmetric approach was adopted at the request of our NIH-appointed DSMB to maximize the number of patients receiving study drug while maintaining blinding.
Whenever a patient was enrolled, the next kit in sequence for that subgroup was used to prepare infusions. […] The remaining vials were used to prepare 5 subsequent 12-hour infusions at the same standard rate of 10 mls/hour for a total of 3 days of treatment. Details of drug monitoring are reported elsewhere (Wright et al. (2005) J Clin Pharmacol 45(6):640-648).
Methods of Measurement: To assess drug safety, study personnel rounded daily to document the occurrence of adverse events (AEs) or serious adverse events (SAEs). Hourly vital signs (blood pressure, heart rate, respiratory rate, temperature, and pulse oximetry), intracranial pressure readings, and other parameters (mean arterial pressure, cerebral perfusion pressure, and fluid balance), were abstracted from each patient's chart. Laboratory values were obtained from the hospital's information system, and concomitant medications and interventions were noted.
Whenever an SAE occurred, an independent board-certified neurosurgeon assessed its potential relationship to study treatment using pre-defined scale. SABs were reported within 24 hours to the Institutional Review Board (IRB), our NIH-appointed Data Safety Monitoring Board (DSMB), and the U.S. Food and Drug Administration. All other adverse events were reported to on a weekly basis.
The infusion was stopped if a patient experienced an anaphylactic reaction, a major thromboembolic event, an unexplained elevation of serum aspartate aminotransferase (AST) or alanine aminotransferase (ALT) to a level greater than 5,000 IU, or a serum total bilirubin level greater than 10 mg/dl. […] These rules were based on O'Brien-Fleming boundaries (O'Brien and Fleming (1979) Biometrics 35(3):549-556), constructed using an alpha spending approach (DeMets and Lan (1994) Statistics in Medicine 13(13-14):1341-1352; discussion 1353-1346).
Primary Data Analysis—Treatment and placebo groups were compared with respect to a variety of demographic, historical and prehospital characteristics to ensure that important independent predictors of outcome were equally distributed.

[3] = test system: patients having moderate to severe TBI; assay: Pilot phase II randomized double-blind trial of progesterone for traumatic brain injury, preliminary evaluation (Example 2); assay type: in vivo, human
Method: The administration protocol was carried out was described above in Example 1.
To determine if a therapeutic response was achieved, the following endpoints were monitored:
ICP reduction determined by calculating “therapeutic intensity level” (ICP-TIL);
duration of coma (injury to awaking);
mortality one-month post injury;
neurological outcome 1 month and 1 year post-injury, as determined by Glasgow outcome scale (GOS), Disability rating scale (DRS) and Galveston orientation and amnesia test (GOAT).
The administration protocol and pharmaceutical composition administered are described in detail in Example 1. Follow up regarding condition occurred at 30 days and 1 year.

[4] = number of subjects, treatment A (76 of 99)

For `CC(=O)[C@H]1CC[C@H]2[C@@H]3CCC4=CC(=O)CC[C@]4(C)[C@H]3CC[C@]12C` [progesterone, pregn-4-ene-3,20-dione], the solubility [1] was “soluble only in alcohol”, the “amount dissolved into solution” value ([1]; Intralipid 20%) was “up to 4 gm per 1 liter of intralipid” and the “30-day adverse event rate: Acute respiratory distress syndrome” value ([2]; both, human, in vivo, 30 days) was 2.6%. For the same compound, the “30-day adverse event rate: Cardiac Arrhythmia” value ([2]; both, human, in vivo, 30 days) was 5.2%, the “30-day adverse event rate: Cholestatic Jaundice” value ([2]; both, human, in vivo, 30 days) was 6.5% and the “30-day adverse event rate: Fever” value ([2]; both, human, in vivo, 30 days) was 70.1%. For the same compound, the “30-day adverse event rate: Gastrointestinal Bleed” value ([2]; both, human, in vivo, 30 days) was 5.2%, the “30-day adverse event rate: Hyperglycemia-non DM” value ([2]; both, human, in vivo, 30 days) was 27.3% and the “30-day adverse event rate: Hypertension” value ([2]; both, human, in vivo, 30 days) was 11.7%. The “30-day adverse event rate: Hypotension” value ([2]; both, human, in vivo, 30 days) was 9.1%, the “30-day adverse event rate: Hypothermia” value ([2]; both, human, in vivo, 30 days) was 5.2% and the “30-day adverse event rate: Hypoxemia” value ([2]; both, human, in vivo, 30 days) was 11.7%. The “30-day adverse event rate: Increase Liver Enzyme” value ([2]; both, human, in vivo, 30 days) was 6.5%, the “30-day adverse event rate: Phlebitis at Injection Site” value ([2]; both, human, in vivo, 30 days) was 1.3% and the “30-day adverse event rate: Rash or Hives” value ([2]; both, human, in vivo, 30 days) was 2.6%. The “30-day adverse event rate: Seizures” value ([2]; both, human, in vivo, 30 days) was 5.2%, the “30-day adverse event rate: Shock” value ([2]; both, human, in vivo, 30 days) was 2.6% and the “30-day adverse event rate: Suspected Pneumonia” value ([2]; both, human, in vivo, 30 days) was 11.7%. For the same compound, the “30-day adverse event rate: Syndrome of inappropriate ADH” value ([2]; both, human, in vivo, 30 days) was 1.3%, the “30-day adverse event rate: Tachycardia” value ([2]; both, human, in vivo, 30 days) was 24.7% and the “30-day adverse event rate: Thromboembolic Disease” value ([2]; both, human, in vivo, 30 days) was 3.9%. The “Mean Duration of Pressures Exceeding Threshold Values: CPP < 60” value ([2]; in vivo) was 6.9 h, the “Mean Duration of Pressures Exceeding Threshold Values: ICP > 25” value ([2]; in vivo) was 5.0 h and the “Mean Duration of Pressures Exceeding Threshold Values: MAP < 70” value ([2]; in vivo) was 2.5 h. The “Mean Duration of Pressures Exceeding Threshold Values: Systolic BP < 90” value ([2]; in vivo) was 2.7 h, the “Mean Frequency of Pressures Exceeding Threshold Values: CPP < 60” value ([2]; in vivo) was 92.9 Rate/1000 consecutive readings and the “Mean Frequency of Pressures Exceeding Threshold Values: ICP > 25” value ([2]; in vivo) was 70.2 Rate/1000 consecutive readings. For the same compound, the “Mean Frequency of Pressures Exceeding Threshold Values: MAP < 70” value ([2]; in vivo) was 29.5 Rate/1000 consecutive readings, the “Mean Frequency of Pressures Exceeding Threshold Values: Systolic BP < 90” value ([2]; in vivo) was 32.1 Rate/1000 consecutive readings and the “Percent of Patients with Clinical Values Exceeding the Threshold: CPP < 60” value ([2]; in vivo) was 48.7%. For the same compound, the “Percent of Patients with Clinical Values Exceeding the Threshold: ICP > 25” value ([2]; in vivo) was 32.4%, the “Percent of Patients with Clinical Values Exceeding the Threshold: MAP < 70” value ([2]; in vivo) was 29.0% and the “Percent of Patients with Clinical Values Exceeding the Threshold: Systolic BP < 90” value ([2]; in vivo) was 29.0%. The “adverse events specifically ascribed to administration” value ([2]; in vivo) was “two cases of superficial phlebitis at the IV site”, the “aggregate and individual rates of adverse and serious adverse events versus placebo” value ([2]; in vivo) was “not different between groups” and the “patients who developed a deep vein thrombosis” value ([2]; in vivo) was “Three patients”. For the same compound, the “serious adverse events attributed to study drug” value ([2]; in vivo) was “No serious adverse events were attributed to progesterone”, the “slope of treatment by time interaction term for mean temperature” value ([2]; in vivo) was −0.0055 and the “30-day adverse event rate: Central nervous system infection” value ([2]; progesterone group, n=77) was 1.3%. For the same compound, the “30-day adverse event rate: Death within 30 days” value ([2]; progesterone group, n=77) was 13.0%, the “30-day adverse event rate: Sepsis” value ([2]; progesterone group, n=77) was 2.6% and the mortality rate ([3]; moderate to severe TBI, three days IV progesterone, preliminary) was 12.9%. For the same compound, the “Brain death, frequency” value [3, 4] was 4, the “Medicinal death, frequency” value [3, 4] was 5 and the “Not Dead, frequency” value [3, 4] was 67. For the same compound, the “proportion of subjects experiencing brain death versus group B” value ([3]; p=0.0295 by Fisher's exact test) was “significantly lower proportion”, the “proportion of subjects experiencing medical death versus group B” value ([3]; p=0.6622 by Fisher's exact) was “not statistically significant” and the “Medicinal death, percent” value ([3]; percent of all 99 subjects) was 5.05%. For the same compound, the “Not Dead, percent” value ([3]; percent of all 99 subjects) was 67.68% and the “reduction in brain deaths” value ([3]; versus control subjects, preliminary) was 60%.
